Each block holds one molecule with its values, some of them ahead of it.
Columns and labels:
[1] = test system: FaDu cells; experiment: In vitro cell viability assay (CellTiter-Glo, 6 days); format: cell-based; details: Homo sapiens, free antifolate drugs, Table 1d
Method: (§1) FaDu, BxPC-3, HeLa, MV4-11, and RAJI cell lines were obtained from Deutsche Sammlung von Mikroorganismen und Zellkulturen (Leipzig, Germany). Jurkat NucLight Red cells were obtained from Essen BioScience Inc. (Ann Arbor, Mich., USA). SK-BR-3 and SK-OV-3 cells were cultured in McCoys 5A medium (Lonza; Walkersville, Md., USA) supplemented with 10% v/w Fetal Bovine Serum (FBS), Heat-inactivated (HI) (Gibco-Life Technologies; Carlsbad, Calif.) and 80 U/mL Pen/Strep (Gibco-Life Technologies), at 37° C. in a humidified incubator under 5% CO2 atmosphere. SW-620 cells were similarly maintained in RPMI 1640 medium (Lonza), containing 10% v/w FBS HI and 80 U/mL Pen/Strep. A-549 cells were similarly maintained in F-12K Nutrient Mixture (1×) (Gibco-Life Technologies) media supplemented with 80 U/mL Pen/Strep and 5% v/w FBS, which was Qualified (Q) (Gibco-Life Technologies). BT-474 and AU-565 cells were similarly maintained in RPMI 1640 medium (Lonza), containing 10% v/w FBS, which was Qualified (Q) (Gibco-Life Technologies), and 80 U/mL Pen/Strep. […] Jurkat NucLight Red cells were similarly maintained in RPMI 1640 medium (Lonza), containing 10% v/w FBS HI, 80 U/mL Pen/Strep and 0.5 μg/mL Puromycin (Gibco-Life Technologies). FaDu cells were cultured in EMEM medium (Lonza) supplemented with 10% v/w FBS HI (Gibco-Life Technologies), 1× GlutaMAX (Gibco-Life Technologies), and 80 U/mL Pen/Strep (Gibco-Life Technologies), at 37° C. in a humidified incubator under 5% CO2 atmosphere.
(§2) After an overnight incubation, 10 serial log 10 dilutions of the free drugs were made in DMSO (Sigma-Aldrich). These free drug dose-response curves were 10-times further diluted in complete growth medium. For the ADCs according to the invention 10 serial log 10 dilutions were made in complete growth medium. 10 μL of a composition comprising a free drug or an ADC according to the invention was added to the assay plate (final DMSO content for free drugs was 1%). […] […] Percentage cell survival was calculated by dividing the measured luminescence for each free drug or ADC according to the concentration with the average mean of untreated cells (1% or 0.1% DMSO control (for free drugs) or 100% complete growth medium (for ADCs)) multiplied by 100.
(§3) Curves were fitted by non-linear regression using the sigmoidal dose-response equation with variable slope (four parameters) using curve-fitting software (GraphPad Prism, version 9.4.0 for Windows, GraphPad, San Diego, Calif. or Electronic Laboratory Notebook (ELN) add-in BioAssay, version 19.1.0.0218, Perkin Elmer, Waltham, Mass.). Relative IC50 values were calculated as the concentration that gives a response halfway between bottom and top of the curve, when using a 4-parameter logistic fit. Data were reported as mean IC50 value of at least one experiment performed in duplicate.

[2] = test system: BxPC-3 cells; experiment: as above; format: cell-based; details: Homo sapiens, free antifolate drugs, Table 1d
Method: as §1, §2, §3

[3] = test system: SK-BR-3 cells; experiment: as above; format: cell-based, human; details: Homo sapiens
Method: as §1, §2, §3

[4] = test system: Jurkat NucLight Red cells; experiment: as above; format: cell-based, human; details: Homo sapiens, Jurkat, free antifolate drugs
Method: as §1
(§4) After an overnight incubation, 10 serial log 10 dilutions of the free drugs were made in DMSO (Sigma-Aldrich). These free drug dose-response curves were 10-times further diluted in complete growth medium. For the ADCs according to the invention 10 serial log 10 dilutions were made in complete growth medium. 10 μL of a composition comprising a free drug or an ADC according to the invention was added to the assay plate (final DMSO content for free drugs was 1%). […] Cell viability was assessed after 6 days using a luminescent assay kit (CellTiter-Glo™ (CTG), Promega Corporation) according to the manufacturer's instructions. Percentage cell survival was calculated by dividing the measured luminescence for each free drug or ADC according to the concentration with the average mean of untreated cells (1% or 0.1% DMSO control (for free drugs) or 100% complete growth medium (for ADCs)) multiplied by 100.
as §3

[5] = test system: BT-474 cells; experiment: as above; format: cell-based; details: Homo sapiens, free antifolate drugs, Table 1a, # no full dose-response curve
Method: as §1, §2, §3

[6] = test system: A-549 cells; experiment: as above; format: cell-based; details: Homo sapiens, A549; free antifolate drugs, Table 1a; $ steep hillslope
Method: (§5) Human tumor cell lines SK-BR-3, SW-620, A-549, BT-474, Jurkat Clone E6-1, AU-565, and SK-OV-3 were obtained from American Type Culture Collection (Rockville, Md., USA). FaDu, BxPC-3, HeLa, MV4-11, and RAJI cell lines were obtained from Deutsche Sammlung von Mikroorganismen und Zellkulturen (Leipzig, Germany). Jurkat NucLight Red cells were obtained from Essen BioScience Inc. (Ann Arbor, Mich., USA). SK-BR-3 and SK-OV-3 cells were cultured in McCoys 5A medium (Lonza; Walkersville, Md., USA) supplemented with 10% v/w Fetal Bovine Serum (FBS), Heat-inactivated (HI) (Gibco-Life Technologies; Carlsbad, Calif.) and 80 U/mL Pen/Strep (Gibco-Life Technologies), at 37° C. in a humidified incubator under 5% CO2 atmosphere. SW-620 cells were similarly maintained in RPMI 1640 medium (Lonza), containing 10% v/w FBS HI and 80 U/mL Pen/Strep. A-549 cells were similarly maintained in F-12K Nutrient Mixture (1×) (Gibco-Life Technologies) media supplemented with 80 U/mL Pen/Strep and 5% v/w FBS, which was Qualified (Q) (Gibco-Life Technologies). BT-474 and AU-565 cells were similarly maintained in RPMI 1640 medium (Lonza), containing 10% v/w FBS, which was Qualified (Q) (Gibco-Life Technologies), and 80 U/mL Pen/Strep. Jurkat Clone E6-1, BxPC-3, HeLa, MV4-11, and RAJI cells were similarly maintained in RPMI 1640 medium (Lonza), containing 10% v/w FBS HI and 80 U/mL Pen/Strep. Jurkat NucLight Red cells were similarly maintained in RPMI 1640 medium (Lonza), containing 10% v/w FBS HI, 80 U/mL Pen/Strep and 0.5 μg/mL Puromycin (Gibco-Life Technologies). FaDu cells were cultured in EMEM medium (Lonza) supplemented with 10% v/w FBS HI (Gibco-Life Technologies), 1× GlutaMAX (Gibco-Life Technologies), and 80 U/mL Pen/Strep (Gibco-Life Technologies), at 37° C. in a humidified incubator under 5% CO2 atmosphere.
as §4, with “Cells in complete growth medium were plated in 96-well plates (90 μL/well) and incubated at 37° C., 5% CO2 at the following cell densities: 6500 SK-BR-3, 4000 SW-620, 2500 A-549, 10000 BT-474, 3000 Jurkat Clone E6-1, 5000 AU-565, 1250 FaDu, 1250 BxPC-3, 1000 HeLa, 7500 MV4-11, 1000 RAJI, 3000 Jurkat NucLight Red, and 4000 SK-OV-3 cells per well. After” for “After”
as §3

[7] = test system: Human tumor cell lines; experiment: In vitro cell viability assays, free antifolate drugs, overall comparison; format: cell-based; details: compared with talotrexin or parent compound
Method: as §5
as §4, with “Cells in complete growth medium were plated in 96-well plates (90 μL/well) and incubated at 37° C., 5% CO2 at the following cell densities: 6500 SK-BR-3, 4000 SW-620, 2500 A-549, 10000 BT-474, 3000 Jurkat Clone E6-1, 5000 AU-565, 1250 FaDu, 1250 BxPC-3, 1000 HeLa, 7500 MV4-11, 1000 RAJI, 3000 Jurkat NucLight Red, and 4000 SK-OV-3 cells per well. After” for “After”
as §3

[8] = test system: RAJI cells; experiment: In vitro cell viability assay (CellTiter-Glo, 6 days); format: cell-based; details: Homo sapiens, free antifolate drugs, Table 1d
Method: as §5
as §4, with “Cells in complete growth medium were plated in 96-well plates (90 μL/well) and incubated at 37° C., 5% CO2 at the following cell densities: 6500 SK-BR-3, 4000 SW-620, 2500 A-549, 10000 BT-474, 3000 Jurkat Clone E6-1, 5000 AU-565, 1250 FaDu, 1250 BxPC-3, 1000 HeLa, 7500 MV4-11, 1000 RAJI, 3000 Jurkat NucLight Red, and 4000 SK-OV-3 cells per well. After” for “After”
as §3

[9] = test system: MV4-11 cells; experiment: as above; format: cell-based; details: Homo sapiens, free antifolate drugs, Table 1d
Method: as §5
as §4, with “Cells in complete growth medium were plated in 96-well plates (90 μL/well) and incubated at 37° C., 5% CO2 at the following cell densities: 6500 SK-BR-3, 4000 SW-620, 2500 A-549, 10000 BT-474, 3000 Jurkat Clone E6-1, 5000 AU-565, 1250 FaDu, 1250 BxPC-3, 1000 HeLa, 7500 MV4-11, 1000 RAJI, 3000 Jurkat NucLight Red, and 4000 SK-OV-3 cells per well. After” for “After”
as §3

[10] = test system: HeLa cells; experiment: as above; format: cell-based; details: Homo sapiens, free antifolate drugs, Table 1d
Method: as §5
as §4, with “Cells in complete growth medium were plated in 96-well plates (90 μL/well) and incubated at 37° C., 5% CO2 at the following cell densities: 6500 SK-BR-3, 4000 SW-620, 2500 A-549, 10000 BT-474, 3000 Jurkat Clone E6-1, 5000 AU-565, 1250 FaDu, 1250 BxPC-3, 1000 HeLa, 7500 MV4-11, 1000 RAJI, 3000 Jurkat NucLight Red, and 4000 SK-OV-3 cells per well. After” for “After”
as §3

[11] = test system: AU-565 cells; experiment: as above; format: cell-based, human; details: Homo sapiens, AU565, free antifolate drugs
Method: as §1, §2, §3

[12] = test system: SW-620 cells; experiment: as above; format: cell-based; details: Homo sapiens, free antifolate drugs, Table 1a
Method: as §1, §4, §3

[13] = test system: SK-OV-3 cells; experiment: as above; format: cell-based; details: Homo sapiens, free antifolate drugs, Table 1a
Method: as §1, §4, §3

[14] = SK-BR-3, 24 h, free antifolate drugs, Table 1d
[15] = SK-BR-3, free antifolate drugs, Table 1a

Compound: Nc1ccc(C(=O)NCCC[C@H](NC(=O)c2ccc(CCc3ccc4nc(N)nc(N)c4c3F)cc2)C(=O)O)c(-c2nnn[nH]2)c1 [XG2, (S)-5-(4-Amino-2-(1H-tetrazol-5-yl)benzamido)-2-(4-(2-(2,4-diamino-5-fluoroquinazolin-6-yl)ethyl)benzamido)pentanoic acid]
IC50 [1]: 0.31 nM | IC50 [2]: 0.92 nM | IC50 [3, 14]: 0.9 nM | IC50 ([4]; 24 h, Table 1d): 0.87 nM

Compound: Nc1ccc(C(=O)NCCC[C@H](NC(=O)c2ccc(CCc3ccc4nc(N)nc(N)c4c3)cc2)C(=O)O)cc1 [XJ4, (S)-5-(4-Aminobenzamido)-2-(4-(2-(2,4-diaminoquinazolin-6-yl)ethyl)benzamido)pentanoic acid]
IC50 [5]: 8.1 nM | IC50 [6]: ~10 nM | antifolate activity, comparison in words [7]: less active than talotrexin | IC50 [3, 15]: 3.4 nM

Compound: Nc1ccc(C(=O)NCCC[C@H](NC(=O)c2ccc(CCc3ccc4nc(N)nc(N)c4c3Cl)cc2)C(=O)O)c(-c2nnn[nH]2)c1 [XT123, (S)-5-(4-amino-2-(1H-tetrazol-5-yl)benzamido)-2-(4-(2-(2,4-diamino-5-chloroquinazolin-6-yl)ethyl)benzamido)pentanoic acid]
IC50 [1]: 0.19 nM | IC50 [2]: 0.71 nM | IC50 [8]: 0.6 nM | IC50 [9]: 0.62 nM | IC50 [10]: 0.11 nM | IC50 ([11]; Table 1c): 0.35 nM | IC50 [3, 14]: 0.63 nM | IC50 ([3]; SK-BR-3, free antifolate drugs, Table 1c): 0.44 nM | IC50 ([4]; 24 h, Table 1d): 0.79 nM | IC50 ([4]; Table 1c): 0.6 nM

The next lines start with results.

IC50 [6]: 29 nM | IC50 [3, 15]: 6.5 nM | IC50 [12]: 2.8 nM
Compound: Nc1ccc(C(=O)NCCC[C@H](NC(=O)c2ccc(CCc3cnc4nc(N)nc(N)c4n3)cc2)C(=O)O)cc1 [XX7, (S)-5-(4-Aminobenzamido)-2-(4-(2-(2,4-diaminopteridin-6-yl)ethyl)benzamido) pentanoic acid]
antifolate activity, comparison in words [7]: less active than talotrexin

IC50 [6]: 42 nM | IC50 [3, 15]: 17 nM | IC50 [12]: 7.5 nM
Compound: CN(Cc1cnc2nc(N)nc(N)c2n1)c1ccc(C(=O)N[C@@H](CCCNC(=O)c2ccc(N)cc2)C(=O)O)cc1 [XX12, (S)-5-(4-aminobenzamido)-2-(4-(((2,4-diaminopteridin-6-yl)methyl)(methyl)amino)benzamido) pentanoic acid]
antifolate activity, comparison in words [7]: less active than talotrexin

IC50 [5]: 4.3 nM | IC50 [6]: ~2.5 nM | IC50 [3, 15]: 1.3 nM | IC50 ([3]; SK-BR-3, free antifolate drugs, Table 1b, # no full dose-response curve): 1.03 nM | IC50 ([4]; Table 1b): 1.4 nM
Compound: Nc1ccc(C(=O)NCCC[C@H](NC(=O)c2ccc(NCc3cnc4nc(N)nc(N)c4n3)cc2)C(=O)O)c(-c2nn[nH]n2)c1 [XX35, (S)-5-(4-Amino-2-(2H-tetrazol-5-yl)benzamido)-2-(4-(((2,4-diaminopteridin-6-yl)methyl)amino)benzamido)pentanoic acid]
IC50 ([11]; Table 1b): 0.62 nM

IC50 [5]: 7.5 nM | IC50 [6]: 4 nM | IC50 [3, 15]: 2.4 nM
Compound: Nc1ccc(C(=O)NCCC[C@H](NC(=O)c2ccc(NCc3cnc4nc(N)nc(N)c4n3)cc2)C(=O)O)c(S(=O)(=O)O)c1 [XX37, (S)-5-(4-Amino-2-sulfobenzamido)-2-(4-(((2,4-diaminopteridin-6-yl)methyl)amino)benzamido) pentanoic acid]

IC50 [5]: ~100 nM | IC50 [3, 15]: ~14 nM | IC50 [13]: > 100 nM
Compound: N#Cc1cc(N)ccc1-c1cn(CCC[C@H](NC(=O)c2ccc(NCc3cnc4nc(N)nc(N)c4n3)cc2)C(=O)O)nn1 [XX47, (S)-5-(4-(4-Amino-2-cyanophenyl)-1H-1,2,3-triazol-1-yl)-2-(4-(((2,4-diaminopteridin-6-yl)methyl)amino)benzamido)pentanoic acid]
